In article PMC3815685 (ACS chemical biology, 2013):

Experiments:
PiCSAD = PiCSAD (Polaribacter irgensii, UniProt A4C1C8); experiment: decarboxylation, OPA-HPLC, partially purified enzyme; assay type: biochemical; settings: PBS pH 7.4, 10 μM PLP, 4 °C
hCSAD = target: T1, hCSAD (Homo sapiens, UniProt Q9Y600); experiment: inhibition of CSA decarboxylation, OPA-HPLC of hypotaurine/taurine; assay type: biochemical
T1 sequence (Q9Y600 1-493): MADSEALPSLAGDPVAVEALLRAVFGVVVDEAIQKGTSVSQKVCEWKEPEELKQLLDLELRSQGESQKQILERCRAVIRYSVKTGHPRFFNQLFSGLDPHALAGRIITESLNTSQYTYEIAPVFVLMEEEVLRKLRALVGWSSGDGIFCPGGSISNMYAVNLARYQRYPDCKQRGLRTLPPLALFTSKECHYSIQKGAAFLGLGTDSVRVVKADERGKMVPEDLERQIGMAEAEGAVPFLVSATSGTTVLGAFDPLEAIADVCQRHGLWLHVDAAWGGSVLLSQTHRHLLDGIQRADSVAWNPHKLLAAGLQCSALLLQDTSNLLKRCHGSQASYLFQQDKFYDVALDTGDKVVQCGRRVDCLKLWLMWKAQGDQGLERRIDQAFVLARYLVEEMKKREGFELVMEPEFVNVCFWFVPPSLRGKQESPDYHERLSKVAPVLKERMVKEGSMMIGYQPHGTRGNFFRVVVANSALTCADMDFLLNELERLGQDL

Row | IC50 (hCSAD) | Compound | decarboxylation, OPA-HPLC, partially purified enzyme (PiCSAD)
1 | – | N[C@@H](CS(=O)O)C(=O)O [CSA, cysteine sulfinic acid] | showed decarboxylation of CSA but no detectable activity towards CA or L-Glu
2 | 1100 ± 100 µM | N[C@@H](CCC(=O)O)C(=O)O [L-Glu, L-glutamic acid] | –
